Source: patent US20220125877A1, “METHOD FOR TREATING COLORECTAL CANCER” (SUN YAT-SEN UNIVERSITY, priority 2019, published 2022)

Legend:
[1] = test system: metastatic colorectal cancer (mCRC) patients with T2DM; test: Retrospective study of OS and PFS of first-line chemotherapy in mCRC patients with T2DM (Kaplan-Meier, stratified Cox proportional hazard model), SYSUCC 2004-2016; format: in vivo, human
From the text: General clinical characteristics of the patients, such as, sex, age and body mass index (BMI) and the clinical characteristics affecting mCRC prognosis in the existing research reports (such as, primary tumor site, pathological grading, metastatic site, first-line chemotherapy regimen and KRAS genotype) were collected to exclude confounding factors, thus making the influences of metformin on the overall survival (OS) of the mCRC patients with T2DM and the progression free survival (PFS) of the first-line chemotherapy clear.
GraphPad Prism 7 was used to draw a Kaplan-Meier curve, and Log-rank (Mantel-Cox) statistical analysis was performed; stratified HR was additionally used to make a statistics on the influences on OS and PFS between different hypoglycemic agents use and the without anti-diabetic treatments.
A stratified Cox proportional hazard model was used for stratification on the above collected clinical characteristics to explore the individual factors influencing the efficacy of metformin.
After through the proportional hazard assumption, it is further assumed that sex, age, BMI, primary tumor site, pathological grading, metastatic site, and KRAS genotype may serve as confounding factors to make an impact on the anti-tumor effect of metformin. Therefore, hierarchical regression analysis was performed on the above clinical characteristics, thus determining the individual difference interacting with metformin.

[2] = test system: KRAS wildtype CRC cells SW48; test: Proliferation detection (Edu method); format: cell-based, human; settings: FIGS. 8A-B
Experimental: Edu was used to detect the ratio of proliferative cells, a plate clone formation experiment and PI/Rnase simple staining were used to detect the distribution of cell cycles, thus making the effect of metformin on the proliferation of CRC cells clear.
1) Cell treatment by Edu: cells were cultured in a culture dish (covered with a sterilized cover glass), and subjected adherence growth for 12 h, and starvation treatment over the night, and treated with the addition of an agent for the corresponding time, and then added with EdU (final concentration: 10 μM) at the last 2-6 h (EdU treatment time was determined according to the cell growth rate).
2) Immobilization: 4% paraformaldehyde was added according to 1 mL/well to immobilize the cells for 15 min at room temperature.
3) Slide washing: 3% BSA (dissolved by PBS) was used according to 1 mL/well for washing for twice.
4) Rupture of membrane: the cells were treated by 0.5% TritonX-100 according to 1 mL/well for 20 min at room temperature.
5) Slide washing: the same as the step 3).
6) Addition of a ClickiT reaction mixture: the reaction mixture was added per […] in the dark for 30 min at room temperature. […]
11) The slide was observed under a full-automatic positive fluorescence microscope to analyze the result, and shoot and recorded (100×, 200×, 400×, the original image was kept).

[3] = metformin use vs non-metformin use, Age at diagnosis <60 years
[4] = metformin use vs non-metformin use, Age at diagnosis ≥60 years
[5] = metformin use vs non-metformin use, BMI Normal (18.5~23.0)
[6] = metformin use vs non-metformin use, BMI Pre- & obese (>23.0)
[7] = metformin use vs non-metformin use, KRAS genotype Wildtype
[8] = metformin use vs non-metformin use, Metastatic site Liver
[9] = metformin use vs non-metformin use, Metastatic site Multiple sites
[10] = metformin use vs non-metformin use, Moderately differentiated
[11] = metformin use vs non-metformin use, Poorly & un-differentiated
[12] = metformin use vs non-metformin use, Primary site Left colon
[13] = metformin use vs non-metformin use, Primary site Rectum
[14] = metformin use vs non-metformin use, Primary site Right colon
[15] = metformin use vs non-metformin use, Sex: Female
[16] = metformin use vs non-metformin use, Sex: Male
[17] = vs nonusers of hypoglycemic agents, stratified by age at diagnosis, adjusted for sex, BMI, primary site, metastatic site, pathological grading, KRAS genotype

With CN(C)C(=N)N=C(N)N [metformin] the “overall survival, Kaplan-Meier curve” value ([1]; KRAS mutation mCRC patients, P<0.001, FIGS. 3A-B) was “significantly extends”, the “progression free survival of first-line chemotherapy, Kaplan-Meier curve” value ([1]; KRAS mutation mCRC patients, P<0.01, FIGS. 3A-B) was “significantly extends” and the “efficacy on OS and PFS, Kaplan-Meier curve” value ([1]; KRAS wildtype mCRC patients, FIGS. 3C-D) was “has no efficacy”. For the same compound, the “extension of median survival” value ([1]; Kaplan-Meier, mCRC patients with T2DM, P=0.022, FIG. 2) was 11.3 months, the “OS HR (95% CI)” value [1, 3] was 0.869 and the “PFS HR (95% CI)” value [1, 3] was 1.074. For the same compound, the “OS HR (95% CI)” value [1, 4] was 0.596, the “PFS HR (95% CI)” value [1, 4] was 0.562 and the “OS HR (95% CI)” value [1, 5] was 0.582. The “PFS HR (95% CI)” value [1, 5] was 0.884, the “OS HR (95% CI)” value [1, 6] was 0.702 and the “PFS HR (95% CI)” value [1, 6] was 0.555. The “OS HR (95% CI)” value [1, 7] was 1.487, the “PFS HR (95% CI)” value [1, 7] was 1.194 and the “OS HR (95% CI)” value [1, 8] was 1.151. For the same compound, the “PFS HR (95% CI)” value [1, 8] was 0.949, the “OS HR (95% CI)” value [1, 9] was 1.008 and the “PFS HR (95% CI)” value [1, 9] was 0.818. For the same compound, the “OS HR (95% CI)” value [1, 10] was 0.676, the “PFS HR (95% CI)” value [1, 10] was 0.644 and the “OS HR (95% CI)” value [1, 11] was 0.629. The “PFS HR (95% CI)” value [1, 11] was 0.811, the “OS HR (95% CI)” value [1, 12] was 0.982 and the “PFS HR (95% CI)” value [1, 12] was 0.823. The “OS HR (95% CI)” value [1, 13] was 0.475, the “PFS HR (95% CI)” value [1, 13] was 0.544 and the “OS HR (95% CI)” value [1, 14] was 0.729. The “PFS HR (95% CI)” value [1, 14] was 0.622, the “OS HR (95% CI)” value [1, 15] was 0.944 and the “PFS HR (95% CI)” value [1, 15] was 0.697. The “OS HR (95% CI)” value [1, 16] was 0.673, the “PFS HR (95% CI)” value [1, 16] was 0.732 and the “OS HR (95% CI)” value [1, 17] was 0.356. The “PFS HR (95% CI)” value [1, 17] was 0.630 and the “ratio of proliferating-phase cells (EdU positive)” value [2] was “no obvious effect”.
